Reference: US8575156B2, “Cyclic inhibitors of 11β-hydroxysteroid dehydrogenase 1” (Vitae Pharmaceuticals, Inc., priority 2007, dated 2013)
Read-outs that look alike come from different tables or passages of the source.

Molecular target: 11β-HSD1 (Homo sapiens, UniProt P28845)
Assay: biochemical
Conditions: for IC50: IC50 Range; for inhibition at 0.1111 µM: read-out: Average % inhibition at 111.1 nM, Biological Test Example 1, 111.1 nM compound
[1] = Biological Test Example 1, microsomes from CHO cells overexpressing human 11β-HSD1
[2] = read-out: Average % inhibition at 100 nM, Biological Test Example 1, 100 nM
[3] = read-out: Average % inhibition at 100 nM, Biological Test Example 1, 100 nM compound

Sequence of 11β-HSD1 (P28845 whole entry): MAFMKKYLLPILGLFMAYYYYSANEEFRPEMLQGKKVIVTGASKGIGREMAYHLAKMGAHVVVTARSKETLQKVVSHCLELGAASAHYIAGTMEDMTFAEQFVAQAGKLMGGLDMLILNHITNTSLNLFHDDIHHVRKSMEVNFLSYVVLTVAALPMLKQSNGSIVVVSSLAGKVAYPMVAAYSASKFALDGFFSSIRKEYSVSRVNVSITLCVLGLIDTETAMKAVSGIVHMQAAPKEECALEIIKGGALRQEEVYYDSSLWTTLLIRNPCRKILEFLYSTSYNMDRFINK

Row | Structure (SMILES) | IC50 [1] | inhibition at 0.1 µM [2] | also measured
1 | O=C1OC(CCCO)(c2ccc(F)cc2)CCN1Cc1c(F)cccc1Cl (stereo not shown) [EXAMPLE 349, 3-(2-chloro-6-fluorobenzyl)-6-(4-fluorophenyl)-6-(3-hydroxypropyl)-1,3-oxazinan-2-one] | < 100 nM | 89.8% | –
2 | C[C@@H](c1ccc(-c2ccc(F)cc2)cc1)N1CC[C@](CCN2CCOCC2)(c2ccccc2)OC1=O [EXAMPLE 491, (R)-3-((S)-1-(4′-fluorobiphenyl-4-yl)ethyl)-6-(2-morpholinoethyl)-6-phenyl-1,3-oxazinan-2-one] | < 100 nM | 99.3% | –
3 | C=CCC1(c2ccc(F)cc2)CCN(Cc2ccccc2Br)C(=O)O1 (stereo not shown) [EXAMPLE 350, 6-allyl-3-(2-bromobenzyl)-6-(4-fluorophenyl)-1,3-oxazinan-2-one] | < 100 nM | 91.8% | –
4 | O=C1OC(CCO)(c2ccccc2F)CCN1c1ccc(F)c(-c2ccc(F)cc2F)c1 (stereo not shown) [EXAMPLE 106, 6-(2-fluorophenyl)-6-(2-hydroxyethyl)-3-(2′,4′,6-trifluorobiphenyl-3-yl)-1,3-oxazinan-2-one] | < 100 nM | – | inhibition at 0.1111 µM: 88.7%
5 | C[C@@H](c1ccc(CO)cc1)N1CC[C@](CCCO)(c2ccc(F)cc2)OC1=O [EXAMPLE 154, (R)-6-(4-fluorophenyl)-3-((S)-1-(4-(hydroxymethyl)phenyl)ethyl)-6-(3-hydroxypropyl)-1,3-oxazinan-2-one] | < 100 nM | – | inhibition at 0.1111 µM: 79%
6 | C[C@@H](c1ccc(Br)cc1)N1CC[C@@](C)(c2ccc(F)cc2)OC1=O (single isomer, unassigned) [EXAMPLE 518 Isomer 1] | < 100 nM | 92.2% | –
7 | CC(O)C[C@]1(c2ccc(F)cc2)CCN([C@@H](C)c2ccc(C(F)(F)F)cc2)C(=O)O1 (single isomer, unassigned) [EXAMPLE 388 Isomer 1] | < 100 nM | 92.8% | –
8 | C=CC[C@]1(c2ccc(F)cc2)CCN([C@@H](C)c2ccc(-c3ccc(F)cc3F)cc2)C(=O)O1 (single isomer, unassigned) [EXAMPLE 111 Isomer 2] | < 100 nM | – | inhibition at 0.1111 µM: 58.9%
9 | C[C@@H](c1cccc(O)c1)N1CCC(C)(c2ccccc2)OC1=O (stereo partly drawn) [EXAMPLE 89, 3-((S)-1-(3-hydroxyphenyl)ethyl)-6-methyl-6-phenyl-1,3-oxazinan-2-one] | < 100 nM | – | inhibition at 0.1111 µM: 71.4%
10 | C[C@@H](c1ccc(Br)cc1)N1CC[C@](CCN2CCCS2(=O)=O)(c2ccccc2)OC1=O [EXAMPLE 513, (S)-3-((S)-1-(4-bromophenyl)ethyl)-6-(2-(1-dioxo-isothiazolidin-2-yl)ethyl)-6-phenyl-1,3-oxazinan-2-one] | < 100 nM | 84.4% | –
11 | C[C@@H](c1ccc(-c2ccc(F)cc2)cc1)N1CC[C@](CC(O)CO)(c2ccccc2)OC1=O (single isomer, unassigned) [EXAMPLE 168 Isomer 1] | < 100 nM | – | inhibition at 0.1 µM [3]: 97.2%
12 | C[C@@H](c1ccc(Cl)cc1)N1CC[C@](CCO)(c2ccccc2)OC1=O [EXAMPLE 401, (S)-3-((S)-1-(4-chlorophenyl)ethyl)-6-(2-hydroxyethyl)-6-phenyl-1,3-oxazinan-2-one] | < 100 nM | 98.6% | –
13 | C[C@@H](c1ccc(C(F)(F)F)cc1)N1CC[C@](CCO)(c2ccccc2)OC1=O [EXAMPLE 399, (S)-6-(2-hydroxyethyl)-6-phenyl-3-((S)-1-(4-(trifluoromethyl)phenyl)ethyl)-1,3-oxazinan-2-one] | < 100 nM | 97.9% | –
14 | C[C@@H](c1ccc(-c2ccc(F)cc2F)cc1)N1CC[C@](CCCOC(N)=O)(c2ccc(F)cc2)OC1=O [EXAMPLE 272, 3-((R)-3-((S)-1-(2′,4′-difluorobiphenyl-4-yl)ethyl)-6-(4-fluorophenyl)-2-oxo-1,3-oxazinan-6-yl)propyl carbamate] | < 100 nM | – | inhibition at 0.1 µM [3]: 93.8%
15 | C=CCC1(c2cccs2)CCN([C@@H](C)c2ccc(Br)cc2)C(=O)O1 (single isomer, unassigned) [EXAMPLE 157 Isomer 1] | < 100 nM | – | inhibition at 0.1 µM [3]: 97.4%
16 | COc1ccc([C@H](C)N2CC[C@@](C)(c3ccc(CO)cc3)OC2=O)cc1 (single isomer, unassigned) [EXAMPLE 429 Isomer 2] | > 100 nM | 23% | –
17 | Cc1cccc(C2(C)CCN([C@@H](C)c3ccccc3)C(=O)O2)c1 (single isomer, unassigned) [EXAMPLE 87 Isomer 1] | 100 to 1000 nM | – | inhibition at 0.1111 µM: 13.3%
18 | C[C@@H](c1ccc(Cl)cc1)N1CC[C@](CCCO)(c2ccccc2)OC1=O [EXAMPLE 403, (R)-3-((S)-1-(4-chlorophenyl)ethyl)-6-(3-hydroxypropyl)-6-phenyl-1,3-oxazinan-2-one] | < 100 nM | 99.5% | –

Row | Structure (SMILES) | IC50 [1] | inhibition at 0.1 µM [2] | also measured
19 | CC1(c2ccccc2)CCN(c2cccc(-c3ccccc3Cl)c2)C(=O)O1 (stereo not shown) [EXAMPLE 10, 3-(2′-chlorobiphenyl-3-yl)-6-methyl-6-phenyl-1,3-oxazinan-2-one] | < 100 nM | – | inhibition at 0.1111 µM: 90.5%
20 | C[C@@H](c1ccc(-c2ccc(F)cc2)cc1)N1CC[C@](CCN2CCNC(=O)C2)(c2ccc(F)cc2)OC1=O [EXAMPLE 467, (R)-3-((S)-1-(4′-fluorobiphenyl-4-yl)ethyl)-6-(4-fluorophenyl)-6-(2-(3-oxopiperazin-1-yl)ethyl)-1,3-oxazinan-2-one] | < 100 nM | 81.2% | –
21 | C[C@@H](c1ccc(Cl)cc1F)N1CC[C@](CCCNS(C)(=O)=O)(c2ccc(F)cc2)OC1=O [EXAMPLE 602, N-(3-((R)-3-((S)-1-(4-chloro-2-fluorophenyl)ethyl)-6-(4-fluorophenyl)-2-oxo-1,3-oxazinan-6-yl)propyl)methanesulfonamide] | < 100 nM | 98.6% | –
22 | O=C1OC(CCO)(c2ccccc2)CCN1c1cccc(-c2ccc(F)cc2Cl)n1 (stereo not shown) [EXAMPLE 116, 3-(6-(2-chloro-4-fluorophenyl)pyridin-2-yl)-6-(2-hydroxyethyl)-6-phenyl-1,3-oxazinan-2-one] | < 100 nM | – | inhibition at 0.1111 µM: 97.6%
23 | C[C@@H](c1cccc(Br)c1)N1CC[C@](CCCNS(C)(=O)=O)(c2ccc(F)cc2)OC1=O [EXAMPLE 359, N-(3-((R)-3-((S)-1-(3-bromophenyl)ethyl)-6-(4-fluorophenyl)-2-oxo-1,3-oxazinan-6-yl)propyl)methanesulfonamide] | < 100 nM | 67.5% | –
24 | CC[C@@H](c1ccc(Br)cc1)N1CC[C@](CCCO)(c2ccc(F)cc2)OC1=O [EXAMPLE 241, (R)-3-((S)-1-(4-bromophenyl)propyl)-6-(4-fluorophenyl)-6-(3-hydroxypropyl)-1,3-oxazinan-2-one] | < 100 nM | – | inhibition at 0.1 µM [3]: 96.7%
25 | Cc1ccc([C@H](C)N2CC[C@](CCC(N)=O)(c3ccccc3)OC2=O)cc1 [EXAMPLE 424, 3-((R)-2-oxo-6-phenyl-3-((S)-1-p-tolylethyl)-1,3-oxazinan-6-yl)propanamide] | < 100 nM | 97% | –
26 | C[C@@H](c1ccc(F)cc1)N1CC[C@](CCCO)(c2ccc(F)cc2)OC1=O [EXAMPLE 285, (R)-6-(4-fluorophenyl)-3-((S)-1-(4-fluorophenyl)ethyl)-6-(3-hydroxypropyl)-1,3-oxazinan-2-one] | < 100 nM | – | inhibition at 0.1 µM [3]: 96.2%
27 | O=C1O[C@@](CCCO)(c2ccc(F)cc2)CCN1[C@H]1CCCN(Cc2ccccc2)C1 [EXAMPLE 341, (R)-3-((S)-1-benzylpiperidin-3-yl)-6-(4-fluorophenyl)-6-(3-hydroxypropyl)-1,3-oxazinan-2-one] | – | – | IC50: < 100 nM; inhibition at 0.1 µM (read-out: Average % inhibition at 100 nM): 82%
28 | O=C1OC(CCCO)(c2ccc(F)cc2)CCN1Cc1c(Cl)cccc1Cl (stereo not shown) [EXAMPLE 347, 3-(2,6-dichlorobenzyl)-6-(4-fluorophenyl)-6-(3-hydroxypropyl)-1,3-oxazinan-2-one] | < 100 nM | 96% | –
29 | Cc1ccc([C@H](C)N2CC[C@](CCCNS(C)(=O)=O)(c3ccc(F)cc3)OC2=O)cc1 [EXAMPLE 420, N-(3-((R)-6-(4-fluorophenyl)-2-oxo-3-((S)-1-p-tolylethyl)-1,3-oxazinan-6-yl)propyl)methanesulfonamide] | < 100 nM | 97.3% | –
30 | CC(O)C[C@]1(c2ccc(F)cc2)CCN([C@@H](C)c2ccc(Br)cc2)C(=O)O1 (single isomer, unassigned) [EXAMPLE 371 Isomer 1] | < 100 nM | 98.4% | –
31 | CC1(c2ccccc2)CCN(c2cccc(-c3ccc(C(N)=O)cc3)c2)C(=O)O1 (stereo not shown) [EXAMPLE 44, 3′-(6-methyl-2-oxo-6-phenyl-1,3-oxazinan-3-yl)biphenyl-4-carboxamide] | 100 to 1000 nM | – | inhibition at 0.1111 µM: 35%
32 | Cc1ccc(C2(C)CCN([C@@H](C)c3ccccc3)C(=O)O2)cc1 (single isomer, unassigned) [EXAMPLE 88 Isomer 1] | 100 to 1000 nM | – | inhibition at 0.1111 µM: 74.4%
33 | C[C@@H](c1ccc(C(F)(F)F)cc1)N1CC[C@](CCCNS(C)(=O)=O)(c2ccc(F)cc2)OC1=O [EXAMPLE 389, N-(3-((R)-6-(4-fluorophenyl)-2-oxo-3-((S)-1-(4-(trifluoromethyl)phenyl)ethyl)-1,3-oxazinan-6-yl)propyl)methanesulfonamide] | < 100 nM | 96.4% | –
34 | CC[C@@H](c1ccc(-c2ccc(F)cc2)cc1)N1CC[C@](CCCO)(c2ccc(F)cc2)OC1=O [EXAMPLE 252, (R)-3-((S)-1-(4′-fluorobiphenyl-4-yl)propyl)-6-(4-fluorophenyl)-6-(3-hydroxypropyl)-1,3-oxazinan-2-one] | < 100 nM | – | inhibition at 0.1 µM [3]: 99%
35 | C[C@@H](c1ccc(-c2ccc(F)cc2F)cc1)N1CC[C@](CC(=O)O)(c2ccc(F)cc2)OC1=O [EXAMPLE 174, 2-((S)-3-((S)-1-(2′,4′-difluorobiphenyl-4-yl)ethyl)-6-(4-fluorophenyl)-2-oxo-1,3-oxazinan-6-yl)acetic acid] | 100 to 1000 nM | – | inhibition at 0.1111 µM: 48%
